Values after ≈ are worked out from the molar mass of the structure shown. Square brackets hold non-standard residues; d marks the D form. Ends that are not written are not given here. Peptide text beside a SMILES is read from it.
Tests used:
human red blood cells = assay: Hemolytic activity; assay type: cell-based; conditions: red cells of human, 18 h
Protocol: Human red blood cells (Zenbio, North Carolina, USA) and peptides were separately diluted in PBS (blood concentration, 8%). The blood cell and peptide solutions were then mixed in 96-well polyethylene plates (SPL, Gyeonggi-do, Korea) and incubated for 18 h at 37 °C. The final concentration of human red blood cells was 4%, while peptide concentrations were 100 μM, 50 μM, 25 μM, 12.5 μM, 6.25 μM, 3.13 μM, 1.56 μM, and 0.78 μM. After incubation, the plates were centrifuged at 1000 × g for 5 min, and the supernatants were transferred to 96-well polyethylene plates. Hemolysis levels were determined by measuring the absorbance at 540 nm with a SpectraMax plate spectrophotometer (Molecular Devices, California, USA). Control samples were treated with 1% Triton X-100 (for 100% hemolysis) or solution with 0 μM peptide (for 0% hemolysis) and melittin (for positive control). Each experiment was performed in triplicate.

MDR E. faecalis = assay: microbe, parasite or virus in culture; conditions: CLSI broth microdilution; CAMHB with 50 mg/L Ca2+, 10 mg/L Mg2+; 5 × 10^5 CFU/ml; 18 h 37 °C; triplicate; strain ATCC 51575
Description: (§1) MDR Pseudomonas aeruginosa (CCARM 2180) was purchased from the Culture Collection of Antimicrobial Resistance Microbes (Seoul, Republic of Korea). MDR Acinetobacter baumannii (ATCC BAA-1605) and MDR Enterococcus faecalis (ATCC 51575) were purchased from the American Type Culture Collection (Manassas, VA, USA). MDR Staphylococcus aureus (KCCM 40510) was purchased from the Korean Culture Center of Microorganisms (Seoul, Republic of Korea). S. aureus (KCTC 1621) was purchased from the Korean Collection for Type Cultures. A. baumannii (KCCM 40203) was purchased from the Korean Culture Center of Microorganisms (Seoul, Republic of Korea).
(§2) To assess antimicrobial activity, the MIC50 and MIC90 were measured using broth microdilution following CLSI guidelines. […] Each experiment was performed in triplicate. Meropenem (Sigma, Darmstadt, Germany) and colistin were used as control antibiotics. Cation-adjusted Mueller–Hinton broth (CAMHB) (Becton, Dickinson and Company, Franklin Lakes, USA) with supplied calcium (50 mg/L) and magnesium (10 mg/L) was used for the CLSI-test condition. Bacteria in midlog phase and peptides were separately diluted in CAMHB. The bacteria and peptide solutions were then mixed in 96-well polyethylene plates (SPL, Gyeonggi-do, Korea) and incubated for 18 h at 37 °C. The final concentration for bacteria was 5 × 10^5 CFU/ml. […] The MIC was defined to be the lowest concentration of peptide without visible turbidity by comparing with control antibiotics with the unaided eye. […] Each experiment was performed in triplicate. MICs in albumin and acetic acid solutions were measured using the same protocol but with 0.2% bovine serum albumin (Bovogen, Keilor, Australia), 0.01% acetic acid (Merck, New Jersey, USA), and CAMHB with both calcium and magnesium. In addition, MICs used in the antibiotic resistance acquisition test, the outer–inner membrane permeation test, and the transmembrane potential test and for FE-SEM were individually determined. The final bacterial concentrations used were as follows: for resistance acquisition, optical density (OD) 0.01; for outer–inner membrane permeability assays (LB), OD 0.1; for the transmembrane potential test, 1 × 10^8 CFU/ml (OD 0.171); […]. Inhibitory activity unidentifiable by direct observation was determined by counting the CFUs. Each experiment was performed at least twice.

MDR S. aureus = assay: microbe, parasite or virus in culture; conditions: CLSI broth microdilution; CAMHB with 50 mg/L Ca2+, 10 mg/L Mg2+; 5 × 10^5 CFU/ml; 18 h 37 °C; triplicate; strain KCCM 40510
Description: as §1, §2

MDR A. baumannii = assay: microbe, parasite or virus in culture; conditions: CLSI broth microdilution; CAMHB with 50 mg/L Ca2+, 10 mg/L Mg2+; 5 × 10^5 CFU/ml; 18 h 37 °C; triplicate; strain ATCC BAA-1605
Description: as §1, §2

MDR P. aeruginosa = assay: microbe, parasite or virus in culture; conditions: CLSI broth microdilution; CAMHB with 50 mg/L Ca2+, 10 mg/L Mg2+; 5 × 10^5 CFU/ml; 18 h 37 °C; no visible turbidity; triplicate; strain CCARM 2180
Description: as §1, §2

CC[C@@H](C)[C@@H](NC(=O)[C@@H](Cc1c[nH]c2ccccc12)NC(=O)[C@H](NC(=O)[C@@H](CC(C)C)NC(=O)[C@H](N)Cc1c[nH]c2ccccc12)C(C)C)C(=O)N[C@H](Cc1c[nH]c2ccccc12)C(=O)N[C@H](CCCNC(=N)N)C(=O)N[C@H](CCCNC(=N)N)C(N)=O [WCopW32] (H-[dW][dL][dV][dW][dI][dW][dR][dR]-NH2)
Hemolysis percent, 25 μM (human red blood cells): 1.66 ± 0.11%
Hemolysis percent, 50 μM (human red blood cells): 2.95 ± 0.21%
Hemolysis percent, 100 μM (human red blood cells): 4.53 ±0.01%
Minimum inhibitory concentrations, MDR E. faecalis (MDR E. faecalis): 0.63 µM (≈ 0.765 µg/mL)
Minimum inhibitory concentrations, MDR S. aureus (MDR S. aureus): 0.63 µM (≈ 0.765 µg/mL)
Minimum inhibitory concentrations, MDR A. baumannii (MDR A. baumannii): 2.5 µM (≈ 3.03 µg/mL)

CC[C@@H](C)[C@@H](NC(=O)[C@@H](Cc1c[nH]c2ccccc12)NC(=O)[C@H](NC(=O)[C@@H](CC(C)C)NC(=O)[C@@H](Cc1c[nH]c2ccccc12)NC(=O)[C@H](N)CCCCN)C(C)C)C(=O)N[C@H](Cc1c[nH]c2ccccc12)C(=O)N[C@H](CCCNC(=N)N)C(=O)N[C@H](CCCNC(=N)N)C(=O)N[C@H](CCCNC(=N)N)C(N)=O [WCopW35] (H-[dK][dW][dL][dV][dW][dI][dW][dR][dR][dR]-NH2)
Hemolysis percent, 25 μM (human red blood cells): 1.18 ±0.34%
Hemolysis percent, 50 μM (human red blood cells): 2.71 ±0.63%
Hemolysis percent, 100 μM (human red blood cells): 6.07 ±1.01%
Minimum inhibitory concentrations, MDR P. aeruginosa (MDR P. aeruginosa): 2.5 µM (≈ 3.74 µg/mL)
Minimum inhibitory concentrations, MDR S. aureus (MDR S. aureus): 0.63 µM (≈ 0.944 µg/mL)
Minimum inhibitory concentrations, MDR A. baumannii (MDR A. baumannii): 0.63 µM (≈ 0.944 µg/mL)

CC[C@@H](C)[C@@H](NC(=O)[C@@H](Cc1c[nH]c2ccccc12)NC(=O)[C@H](NC(=O)[C@@H](CC(C)C)NC(=O)[C@@H](Cc1c[nH]c2ccccc12)NC(=O)[C@H](N)CC(=O)O)C(C)C)C(=O)N[C@H](Cc1c[nH]c2ccccc12)C(=O)N[C@H](CCCNC(=N)N)C(=O)N[C@H](CCCNC(=N)N)C(=O)N[C@H](CCCNC(=N)N)C(N)=O [WCopW36] (H-[dD][dW][dL][dV][dW][dI][dW][dR][dR][dR]-NH2)
Hemolysis percent, 25 μM (human red blood cells): 4.03 ±0.40%
Hemolysis percent, 50 μM (human red blood cells): 7.48 ±0.90%
Hemolysis percent, 100 μM (human red blood cells): 9.86 ±1.62%
Minimum inhibitory concentrations, MDR S. aureus (MDR S. aureus): 1.25 µM (≈ 1.86 µg/mL)

CC(C)C[C@@H](NC(=O)[C@H](N)Cc1c[nH]c2ccccc12)C(=O)N[C@@H](C(=O)N[C@H](Cc1c[nH]c2ccccc12)C(=O)N[C@H](CCCCN)C(=O)N[C@H](Cc1c[nH]c2ccccc12)C(=O)N[C@H](CCCNC(=N)N)C(=O)N[C@H](CCCNC(=N)N)C(=O)N[C@H](CCCNC(=N)N)C(N)=O)C(C)C [WCopW37] (H-[dW][dL][dV][dW][dK][dW][dR][dR][dR]-NH2)
Hemolysis percent, 25 μM (human red blood cells): 0.13 ±0.02%
Hemolysis percent, 50 μM (human red blood cells): 0.08 ±0.01%
Hemolysis percent, 100 μM (human red blood cells): 0.16 ±0.03%
Minimum inhibitory concentrations, MDR S. aureus (MDR S. aureus): 5 µM (≈ 6.92 µg/mL)
Minimum inhibitory concentrations, MDR A. baumannii (MDR A. baumannii): 2.5 µM (≈ 3.46 µg/mL)

CC[C@@H](C)[C@@H](NC(=O)[C@@H](Cc1c[nH]c2ccccc12)NC(=O)[C@@H](CC(C)C)NC(=O)[C@H](N)Cc1c[nH]c2ccccc12)C(=O)N[C@H](Cc1c[nH]c2ccccc12)C(=O)N[C@H](CCCNC(=N)N)C(=O)N[C@H](CCCNC(=N)N)C(=O)N[C@H](CCCNC(=N)N)C(N)=O [WCopW41] (H-[dW][dL][dW][dI][dW][dR][dR][dR]-NH2)
Hemolysis percent, 25 μM (human red blood cells): 0.01 ±0.01%
Hemolysis percent, 50 μM (human red blood cells): 0.04 ± 0.02%
Hemolysis percent, 100 μM (human red blood cells): 0.42 ±0.06%
Minimum inhibitory concentrations, MDR E. faecalis (MDR E. faecalis): 1.25 µM (≈ 1.59 µg/mL)
Minimum inhibitory concentrations, MDR A. baumannii (MDR A. baumannii): 2.5 µM (≈ 3.18 µg/mL)

CC(C)[C@@H](NC(=O)[C@H](N)Cc1c[nH]c2ccccc12)C(=O)N[C@@H](C(=O)N[C@@H](C(=O)N[C@@H](C(=O)N[C@H](Cc1c[nH]c2ccccc12)C(=O)N[C@H](CCCNC(=N)N)C(=O)N[C@H](CCCNC(=N)N)C(=O)N[C@H](CCCNC(=N)N)C(N)=O)C(C)C)C(C)C)C(C)C [WCopW44] (H-[dW][dV][dV][dV][dV][dW][dR][dR][dR]-NH2)
Hemolysis percent, 25 μM (human red blood cells): 0.11 ±0.03%
Hemolysis percent, 50 μM (human red blood cells): 0.87 ±0.36%
Hemolysis percent, 100 μM (human red blood cells): 4.48 ±1.01%
Minimum inhibitory concentrations, MDR S. aureus (MDR S. aureus): 1.25 µM (≈ 1.57 µg/mL)
Minimum inhibitory concentrations, MDR A. baumannii (MDR A. baumannii): 2.5 µM (≈ 3.14 µg/mL)

CC[C@@H](C)[C@@H](NC(=O)[C@@H](Cc1c[nH]c2ccccc12)NC(=O)[C@@H](CCCNC(=N)N)NC(=O)[C@H](N)CCCNC(=N)N)C(=O)N[C@H](Cc1c[nH]c2ccccc12)C(=O)N[C@@H](C(=O)N[C@@H](C(=O)N[C@H](Cc1c[nH]c2ccccc12)C(=O)N[C@H](CCCNC(=N)N)C(N)=O)[C@H](C)CC)C(C)C [WCopW54] (H-[dR][dR][dW][dI][dW][dV][dI][dW][dR]-NH2)
Hemolysis percent, 25 μM (human red blood cells): 8.38 ± 1.14%
Hemolysis percent, 50 μM (human red blood cells): 11.43 ± 2.42%
Hemolysis percent, 100 μM (human red blood cells): 35.13 ± 4.13%
Minimum inhibitory concentrations, MDR P. aeruginosa (MDR P. aeruginosa): 2.5 µM (≈ 3.42 µg/mL)
Minimum inhibitory concentrations, MDR S. aureus (MDR S. aureus): 0.63 µM (≈ 0.863 µg/mL)
Minimum inhibitory concentrations, MDR A. baumannii (MDR A. baumannii): 0.63 µM (≈ 0.863 µg/mL)

CC[C@@H](C)[C@@H](NC(=O)[C@@H](Cc1c[nH]c2ccccc12)NC(=O)[C@@H](CCCNC(=N)N)NC(=O)[C@@H](CCCNC(=N)N)NC(=O)[C@H](N)CCCNC(=N)N)C(=O)N[C@H](Cc1c[nH]c2ccccc12)C(=O)N[C@@H](C(=O)N[C@@H](C(=O)N[C@H](Cc1c[nH]c2ccccc12)C(N)=O)[C@H](C)CC)[C@H](C)CC [WCopW60] (H-[dR][dR][dR][dW][dI][dW][dI][dI][dW]-NH2)
Hemolysis percent, 25 μM (human red blood cells): 15.51 ± 0.64%
Hemolysis percent, 50 μM (human red blood cells): 15.14 ± 3.22%
Hemolysis percent, 100 μM (human red blood cells): 15.17 ± 0.19%
Minimum inhibitory concentrations, MDR P. aeruginosa (MDR P. aeruginosa): 5 µM (≈ 6.92 µg/mL)
Minimum inhibitory concentrations, MDR S. aureus (MDR S. aureus): 0.63 µM (≈ 0.872 µg/mL)
Minimum inhibitory concentrations, MDR A. baumannii (MDR A. baumannii): 1.25 µM (≈ 1.73 µg/mL)

CC[C@@H](C)[C@@H](NC(=O)[C@H](N)Cc1c[nH]c2ccccc12)C(=O)N[C@@H](C(=O)N[C@H](Cc1c[nH]c2ccccc12)C(=O)N[C@@H](C(=O)N[C@H](Cc1c[nH]c2ccccc12)C(=O)N[C@H](CCCNC(=N)N)C(=O)N[C@H](CCCNC(=N)N)C(=O)N[C@H](CCCNC(=N)N)C(N)=O)[C@H](C)CC)[C@H](C)CC [WCopW61] (H-[dW][dI][dI][dW][dI][dW][dR][dR][dR]-NH2)
Hemolysis percent, 25 μM (human red blood cells): 6.90 ± 0.03%
Hemolysis percent, 50 μM (human red blood cells): 8.91 ± 0.75%
Hemolysis percent, 100 μM (human red blood cells): 11.6 ±0.99%
Minimum inhibitory concentrations, MDR P. aeruginosa (MDR P. aeruginosa): 5 µM (≈ 6.92 µg/mL)
Minimum inhibitory concentrations, MDR S. aureus (MDR S. aureus): 0.63 µM (≈ 0.872 µg/mL)
Minimum inhibitory concentrations, MDR A. baumannii (MDR A. baumannii): 1.25 µM (≈ 1.73 µg/mL)

WLLWIALRKKR-NH2 [WCopW1]
Hemolysis percent, 25 μM (human red blood cells): 7.03%
Hemolysis percent, 50 μM (human red blood cells): 10.46%
Hemolysis percent, 100 μM (human red blood cells): 19.40%
Minimum inhibitory concentrations, MDR P. aeruginosa (MDR P. aeruginosa): > 20 µM

WLLWIALRKKR-NH2 [WCopW2]
Hemolysis percent, 25 μM (human red blood cells): 8.19%
Hemolysis percent, 50 μM (human red blood cells): 11.43%
Hemolysis percent, 100 μM (human red blood cells): 23.10%

Source: PMC9643456, “Matching amino acids membrane preference profile to improve activity of antimicrobial peptides” (Communications Biology, 2022)
